The test system of one test is HL-60. Kind of test: Antiproliferative activity against human HL60 cells after 24 to 48 hrs by MTT assay. The test is classed as functional, cell-based. (In general: Tetrazolium assays rely on reduction of a dye to a coloured formazan, in cell work by metabolically active cells.)
A further test deals with COLO 205. Kind of test: Antiproliferative activity against human COLO205 cells after 24 to 48 hrs by MTT assay. The class given is functional, cell-based.
The test system of another test is HCT-116. Kind of test: Antiproliferative activity against human HCT116 cells after 24 to 48 hrs by MTT assay. The test is classed as functional, cell-based.
The subject of the next test is MCF7. Kind of test: Antiproliferative activity against human MCF7 cells after 24 to 48 hrs by MTT assay. The class given is functional, cell-based.
In a further test the test system is A549. Kind of test: Antiproliferative activity against human A549 cells after 24 to 48 hrs by MTT assay. The class given is functional, cell-based.
Test [1] can be described thus: Antiproliferative activity against human FR2 cells after 24 to 48 hrs by MTT assay. The test is classed as cell-based.

The term IC50 denotes the concentration that gives 50% inhibition. `Cc1ccccc1-n1c(Cn2cc(-c3ccccc3C(F)(F)F)nn2)nc2cccc(C)c2c1=O`: the IC50 (in the test with HL-60; with COLO 205; with HCT-116; in the test on MCF7; with A549; in test [1]) was above 10 µM in each case.

`COc1ccc(OCc2cn(Cc3nc4ccccc4c(=O)n3-c3ccccc3C)nn2)cc1`: the 50% inhibitory concentration (IC50) (with HL-60; in the test with COLO 205; in the test with HCT-116; with MCF7; in the test on A549; in test [1]) was above 10 µM each time.

Turning to `Cc1cccc(OCc2cn(Cc3nc4ccccc4c(=O)n3-c3ccccc3C)nn2)c1`, the IC50 (in the test on HL-60; in the test with COLO 205; in the test on HCT-116; with MCF7; in the test with A549; in test [1]) was above 10 µM in each case.

`Cc1ccccc1-n1c(Cn2cc(-c3ccc(OC(F)(F)F)cc3)nn2)nc2cccc(C)c2c1=O`: the IC50 (in the test with HL-60; in the test on COLO 205; in the test with HCT-116; in the test on MCF7; in the test on A549; in test [1]) was above 10 µM in each case.

For the molecule `Cc1ccccc1-n1c(Cn2cc(-c3ccccc3C(F)(F)F)nn2)nc2ccccc2c1=O`, the IC50 (in the test with HL-60; in the test with COLO 205; with HCT-116; with MCF7; with A549; in test [1]) was above 10 µM in each case.

Consider `Cc1ccccc1-n1c(Cn2cc(-c3cccnc3)nn2)nc2cccc(C)c2c1=O`, for which the IC50 (with HL-60; in the test on COLO 205; in the test with HCT-116; with MCF7; with A549; in test [1]) was above 10 µM throughout.

`Cc1ccccc1-n1c(Cn2cc(-c3ccccc3F)nn2)nc2cccc(C)c2c1=O`: the IC50 (in the test with HL-60; in the test with COLO 205; in the test on HCT-116; in the test on MCF7; with A549; in test [1]) was above 10 µM throughout.

Take `Cc1ccccc1-n1c(Cn2cc(-c3ccc(Br)cc3)nn2)nc2cccc(C)c2c1=O`: the IC50 (with HL-60; in the test with COLO 205; in the test on HCT-116; in the test with MCF7; in the test with A549; in test [1]) was above 10 µM in each case.

Regarding `Cc1ccccc1-n1c(Cn2cc(-c3cc(C(F)(F)F)cc(C(F)(F)F)c3)nn2)nc2ccccc2c1=O`, the IC50 (in the test on HL-60; with COLO 205; with HCT-116; in the test on MCF7; in the test on A549; in test [1]) was above 10 µM throughout.

`Cc1ccccc1-n1c(Cn2cc(-c3ccc(Br)cc3)nn2)nc2ccccc2c1=O`: the IC50 (with HL-60; in the test with COLO 205; in the test on HCT-116; in the test with MCF7; with A549; in test [1]) was above 10 µM each time.

On to `Cc1ccccc1-n1c(Cn2cc(COc3cccc(F)c3)nn2)nc2ccccc2c1=O`, for which the IC50 (in the test on HL-60; with COLO 205; in the test on HCT-116; with MCF7; in the test with A549; in test [1]) was above 10 µM throughout.

For the molecule `Cc1ccccc1-n1c(Cn2cc(-c3ccccc3)nn2)nc2ccccc2c1=O`, the IC50 (in the test on HL-60; in the test on COLO 205; in the test with HCT-116; in the test with MCF7; in the test with A549; in test [1]) was above 10 µM throughout.

In the case of `Cc1ccccc1-n1c(Cn2cc(-c3ccccc3F)nn2)nc2ccccc2c1=O`, the IC50 (with HL-60; with COLO 205; in the test on HCT-116; in the test with MCF7; with A549; in test [1]) was above 10 µM in each case.

Consider `COc1ccc(-c2cn(Cc3nc4cccc(C)c4c(=O)n3-c3ccccc3C(F)(F)F)nn2)c(C)c1`, for which the IC50 (in the test on HL-60; in the test on COLO 205; in the test with HCT-116; with MCF7; in the test with A549; in test [1]) was above 10 µM throughout.

For the molecule `Cc1cccc2nc(Cn3cc(-c4cccnc4)nn3)n(-c3ccccc3C(F)(F)F)c(=O)c12`, the IC50 (in the test with HL-60; with COLO 205; in the test with HCT-116; in the test on MCF7; in the test on A549; in test [1]) was above 10 µM throughout.

`Cc1ccc(NCc2cn(Cc3nc4cccc(C)c4c(=O)n3-c3ccccc3C(F)(F)F)nn2)cc1C`: the IC50 (with HL-60; with COLO 205; in the test on HCT-116; with MCF7; with A549; in test [1]) was above 10 µM throughout.

As for `Cc1ccccc1-n1c(Cn2cc(-c3ccc(-c4ccccc4)cc3)nn2)nc2cccc(C)c2c1=O`, the IC50 (in the test on HL-60; in the test on COLO 205; in the test on HCT-116; in the test with MCF7; in the test with A549; in test [1]) was above 10 µM throughout.

As for `COc1ccc(S(=O)(=O)NCc2cn(Cc3nc4ccccc4c(=O)n3-c3ccccc3C)nn2)cc1`, the IC50 (in the test on HL-60; in the test with COLO 205; in the test on HCT-116; in the test with MCF7; in the test on A549; in test [1]) was above 10 µM each time.

Turning to `Cc1cc(OCc2cn(Cc3nc4cccc(C)c4c(=O)n3-c3ccccc3C)nn2)ccc1Cl`, the IC50 (in the test with HL-60; with COLO 205; in the test with HCT-116; with MCF7; in the test with A549; in test [1]) was above 10 µM throughout.

For `Cc1ccccc1-n1c(Cn2cnc3c(N)ncnc32)nc2cccc(C)c2c1=O`, the IC50 with HL-60 is 1 µM; in the test with COLO 205, above 10 µM; with HCT-116, above 10 µM; in the test with MCF7, above 10 µM; in the test with A549, above 10 µM; in test [1] it was above 10 µM.

With `Cc1ccc(-c2cn(Cc3nc4cccc(C)c4c(=O)n3-c3ccccc3C)nn2)cc1`, the IC50 (with HL-60; in the test with COLO 205; with HCT-116; in the test with MCF7; in the test on A549; in test [1]) was above 10 µM each time.

On to `Cc1ccccc1-n1c(Cn2cc(CNS(=O)(=O)c3ccc(F)cc3F)nn2)nc2cccc(C)c2c1=O`, for which the IC50 (in the test on HL-60; with COLO 205; with HCT-116; in the test with MCF7; in the test on A549; in test [1]) was above 10 µM each time.

For `Cc1cccc2nc(Cn3cc(-c4ccccc4)nn3)n(-c3ccccc3C(F)(F)F)c(=O)c12`, the IC50 (in the test with HL-60; in the test on COLO 205; with HCT-116; in the test with MCF7; with A549; in test [1]) was above 10 µM in each case.

In the case of `Cc1ccccc1-n1c(Cn2cc(-c3ccc(-c4ccccc4)cc3)nn2)nc2ccccc2c1=O`, the half-maximal inhibitory concentration (IC50) (in the test with HL-60; in the test with COLO 205; with HCT-116; with MCF7; in the test on A549; in test [1]) was above 10 µM each time.

`Cc1ccccc1-n1c(Cn2cc(CNS(=O)(=O)c3ccccc3)nn2)nc2cccc(C)c2c1=O`: the IC50 (in the test on HL-60; with COLO 205; with HCT-116; with MCF7; in the test with A549; in test [1]) was above 10 µM in each case.

These data come from ChEMBL document CHEMBL4219103, “Design and synthesis of 1,4-substituted 1H-1,2,3-triazolo-quinazolin-4(3H)-ones by Huisgen 1,3-dipolar cycloaddition with PI3Kγ isoform selective activity” (Bioorg Med Chem Lett, 2018).
